Activity calls are given as the source filed them. The calls are words filed in the database; no cut-off is given here.
Experiments:
[1] = biological target: Prohibitin-2 (Homo sapiens) (UniProt Q99623); experiment: Binding affinity to PHB2 in human HBL cells assessed as upregulation of MITF protein expression at 10 uM after 24 in presence of autophagy activator HD1 by Western blot analysis; assay type: cell-based
[2] = biological target: Prohibitin-2 (Homo sapiens) (UniProt Q99623); experiment: Induction of PHB2-mediated melanogenesis in human HBL cells assessed as pigmentation at 10 uM after 10 days in presence of autophagy inhibitor PIK-3; assay type: cell-based
[3] = biological target: T1, Prohibitin 1 (Homo sapiens) (UniProt P35232); experiment: Downregulation of PHB1 in human MM043 cells at 0.1 to 10 uM after 24 hrs by Western blot analysis; assay type: cell-based
T1 sequence (whole entry): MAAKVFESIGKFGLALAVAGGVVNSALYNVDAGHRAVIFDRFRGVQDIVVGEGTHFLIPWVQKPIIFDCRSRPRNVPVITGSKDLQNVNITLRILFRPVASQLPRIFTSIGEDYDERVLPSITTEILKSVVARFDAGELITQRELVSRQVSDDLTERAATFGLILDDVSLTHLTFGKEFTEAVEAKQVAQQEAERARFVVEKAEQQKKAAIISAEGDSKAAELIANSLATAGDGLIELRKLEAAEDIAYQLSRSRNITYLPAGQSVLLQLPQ

[4] = biological target: Prohibitin-2 (Homo sapiens) (UniProt Q99623); experiment: Binding affinity to PHB2 in human HL60 cells assessed as LC3-2 accumulation at 0.1 to 10 uM after 24 hrs by Western blot analysis; assay type: cell-based
[5] = biological target: T1, Prohibitin 1 (Homo sapiens); experiment: Downregulation of PHB1 in human HL60 cells at 0.1 to 10 uM after 24 hrs by Western blot analysis; assay type: cell-based
[6] = species: Homo sapiens; experiment: Induction of apoptosis in human MM043 cells at 1 to 10 uM after 48 hrs by Annexin V-PE/7-AAD staining based flow cytometry; assay type: functional, cell-based
[7] = biological target: Prohibitin-2 (Homo sapiens) (UniProt Q99623); experiment: Binding affinity to PHB2 in human HBL cells assessed as upregulation of ERK phosphorylation at 0.1 to 10 uM after 24 hrs by Western blot analysis; assay type: cell-based
[8] = biological target: Prohibitin-2 (Homo sapiens) (UniProt Q99623); experiment: Binding affinity to PHB2 in human HBL cells assessed as LC3-2 accumulation at 10 uM after 24 in presence of autophagy inhibitor PIK-3 by Western blot analysis; assay type: cell-based
[9] = species: Homo sapiens; experiment: Induction of apoptosis in human MM162 cells at 1 to 10 uM after 48 hrs by Annexin V-PE/7-AAD staining based flow cytometry; assay type: functional, cell-based
[10] = biological target: Prohibitin-2 (Homo sapiens) (UniProt Q99623); experiment: Binding affinity to PHB2 in human HBL cells assessed as upregulation of MITF protein expression at 10 uM after 24 in presence of autophagy inhibitor PIK-3 by Western blot analysis; assay type: cell-based
[11] = biological target: Prohibitin-2 (Homo sapiens) (UniProt Q99623); experiment: Binding affinity to PHB2 in human HBL cells assessed as upregulation of MITF protein expression at 0.1 to 10 uM after 24 to 48 hrs by Western blot analysis; assay type: cell-based
[12] = biological target: Prohibitin-2 (Homo sapiens) (UniProt Q99623); experiment: Binding affinity to PHB2 in human HBL cells assessed as LC3-2 accumulation after 24 to 48 hrs by Western blot analysis; assay type: cell-based
[13] = biological target: Prohibitin-2 (Homo sapiens) (UniProt Q99623); experiment: Induction of PHB2-mediated melanogenesis in human HBL cells assessed as pigmentation at 10 uM after 10 days relative to control; assay type: cell-based
[14] = biological target: T1, Prohibitin 1 (Homo sapiens); experiment: Downregulation of PHB1 in human HBL cells at 0.1 to 10 uM after 24 to 48 hrs by Western blot analysis; assay type: cell-based
[15] = biological target: Prohibitin-2 (Homo sapiens) (UniProt Q99623); experiment: Downregulation of PHB2 in human MM162 cells at 0.1 to 10 uM after 24 hrs by Western blot analysis; assay type: cell-based
[16] = biological target: Prohibitin-2 (Homo sapiens) (UniProt Q99623); experiment: Induction of PHB2-mediated melanogenesis in human HBL cells assessed as pigmentation at 1 uM after 10 days relative to control; assay type: cell-based
[17] = biological target: Prohibitin-2 (Homo sapiens) (UniProt Q99623); experiment: Binding affinity to PHB2 in human HBL cells assessed as upregulation of tyrosinase protein expression at 0.1 to 10 uM after 24 to 48 hrs by Western blot analysis; assay type: cell-based
[18] = biological target: Prohibitin-2 (Homo sapiens) (UniProt Q99623); experiment: Binding affinity to PHB2 in human HBL cells assessed as feedback mechanism based inhibition of ERK phosphorylation at 0.1 to 10 uM after 48 hrs by Western blot analysis; assay type: cell-based
[19] = system: HBL; experiment: Induction of apoptosis in human HBL cells at 1 to 10 uM after 48 hrs by Annexin V-PE/7-AAD staining based flow cytometry; assay type: functional, cell-based
[20] = biological target: Prohibitin-2 (Homo sapiens) (UniProt Q99623); experiment: Induction of PHB2-mediated melanogenesis in human HBL cells assessed as pigmentation at 10 uM after 10 days in presence of autophagy activator HD1; assay type: cell-based
[21] = biological target: RAC-alpha serine/threonine-protein kinase (Homo sapiens) (UniProt P31749); experiment: Inhibition of Akt phosphorylation in human MM043 cells at 0.1 to 10 uM after 24 hrs by Western blot analysis; assay type: cell-based
Chain of RAC-alpha serine/threonine-protein kinase (Homo sapiens) (P31749 whole entry): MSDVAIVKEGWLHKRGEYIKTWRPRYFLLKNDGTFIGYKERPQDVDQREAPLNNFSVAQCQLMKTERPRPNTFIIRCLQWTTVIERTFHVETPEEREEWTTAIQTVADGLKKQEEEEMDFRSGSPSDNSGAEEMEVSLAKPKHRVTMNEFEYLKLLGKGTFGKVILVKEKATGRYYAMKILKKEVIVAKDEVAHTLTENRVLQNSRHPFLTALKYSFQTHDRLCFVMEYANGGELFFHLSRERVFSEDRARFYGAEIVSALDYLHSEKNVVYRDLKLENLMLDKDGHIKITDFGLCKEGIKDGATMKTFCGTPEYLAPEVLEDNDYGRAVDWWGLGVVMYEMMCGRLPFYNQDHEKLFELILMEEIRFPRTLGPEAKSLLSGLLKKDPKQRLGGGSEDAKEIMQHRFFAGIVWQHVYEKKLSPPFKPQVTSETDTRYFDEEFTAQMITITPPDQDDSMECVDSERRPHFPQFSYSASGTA

[22] = biological target: Prohibitin-2 (Homo sapiens) (UniProt Q99623); experiment: Downregulation of PHB2 in human HBL cells at 0.1 to 10 uM after 24 to 48 hrs by Western blot analysis; assay type: cell-based
[23] = biological target: Prohibitin-2 (Homo sapiens) (UniProt Q99623); experiment: Downregulation of PHB2 in human HL60 cells at 0.1 to 10 uM after 24 hrs by Western blot analysis; assay type: cell-based
[24] = biological target: Prohibitin-2 (Homo sapiens) (UniProt Q99623); experiment: Binding affinity to PHB2 in human HL60 cells assessed as upregulation of ERK phosphorylation at 0.1 uM after 24 hrs by Western blot analysis; assay type: cell-based
[25] = biological target: RAC-alpha serine/threonine-protein kinase (Homo sapiens) (UniProt P31749); experiment: Inhibition of Akt phosphorylation in human HL60 cells after 24 to 48 hrs by Western blot analysis; assay type: cell-based
[26] = system: KB; experiment: Inhibition of cell proliferation in human KB cells after 72 hrs by MTS assay; assay type: functional, cell-based
[27] = biological target: RAC-alpha serine/threonine-protein kinase (Homo sapiens) (UniProt P31749); experiment: Inhibition of Akt phosphorylation in human HBL cells at 0.1 to 10 uM after 24 to 48 hrs by Western blot analysis; assay type: cell-based
[28] = biological target: Prohibitin-2 (Homo sapiens) (UniProt Q99623); experiment: Binding affinity to PHB2 in human HBL cells assessed as LC3-2 accumulation at 10 uM after 24 in presence of autophagy activator HD1 by Western blot analysis; assay type: cell-based
[29] = system: HL-60; experiment: Inhibition of cell proliferation in human HL60 cells after 72 hrs by MTS assay; assay type: functional, cell-based; conditions: HL-60, 72 h
[30] = biological target: Prohibitin-2 (Homo sapiens) (UniProt Q99623); experiment: Downregulation of PHB2 in human MM043 cells at 0.1 to 10 uM after 24 hrs by Western blot analysis; assay type: cell-based
[31] = biological target: RAC-alpha serine/threonine-protein kinase (Homo sapiens) (UniProt P31749); experiment: Inhibition of Akt phosphorylation in human MM162 cells at 0.1 to 10 uM after 24 hrs by Western blot analysis; assay type: cell-based
[32] = biological target: Prohibitin-2 (Homo sapiens) (UniProt Q99623); experiment: Induction of PHB2-mediated melanogenesis in human MM162 cells assessed as pigmentation at 1 to 10 uM after 10 days relative to control; assay type: cell-based
[33] = biological target: T1, Prohibitin 1 (Homo sapiens); experiment: Downregulation of PHB1 in human MM162 cells at 0.1 to 10 uM after 24 hrs by Western blot analysis; assay type: cell-based
[34] = biological target: Prohibitin-2 (Homo sapiens) (UniProt Q99623); experiment: Induction of PHB2-mediated melanogenesis in human MM043 cells assessed as pigmentation at 1 to 10 uM after 10 days relative to control; assay type: cell-based

Chain of Prohibitin-2 (Homo sapiens) (Q99623 whole entry): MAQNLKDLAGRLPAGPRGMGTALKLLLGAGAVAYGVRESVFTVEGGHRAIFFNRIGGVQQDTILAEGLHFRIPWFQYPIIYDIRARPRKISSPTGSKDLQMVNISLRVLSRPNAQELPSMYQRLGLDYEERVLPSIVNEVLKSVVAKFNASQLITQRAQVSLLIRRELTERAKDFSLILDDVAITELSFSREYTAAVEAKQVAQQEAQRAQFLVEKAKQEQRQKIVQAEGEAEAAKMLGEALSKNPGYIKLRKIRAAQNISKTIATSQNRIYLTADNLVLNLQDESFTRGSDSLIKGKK

`Fc1cccc(CNc2nc(Oc3c(F)c(F)c(F)c(F)c3F)nc(N3CCC(N4CCCCC4)CC3)n2)c1` was tested, and the Activity [1] was “Active”, the Activity [2] was “inactive” and the Activity [3] was “Active”. For the same compound, the Activity [4] was “Active”, the Activity [5] was “Active” and the Activity [6] was “Active”. For the same compound, the Activity [7] was “Active”, the Activity [8] was “inactive” and the Activity [9] was “Active”. For the same compound, the Activity [10] was “inactive”, the Activity [11] was “Active” and the Activity [12] was “Dose-dependent effect”. The fold change (FC) [13] was 2.01, the Activity [14] was “Active” and the Activity [15] was “Active”. For the same compound, the fold change (FC) [16] was 1.15, the Activity [17] was “Active” and the inhibition [18] was “Active”. The Activity [19] was “Active”, the Activity [20] was “Active” and the inhibition [21] was “Active”. The Activity [22] was “Active”, the Activity [23] was “Active” and the Activity [24] was “Active”. The inhibition [25] was “Dose-dependent effect”, the IC50 [26] was 46 µM and the inhibition [27] was “Active”. For the same compound, the Activity [28] was “Active”, the IC50 [29] was 25 µM and the Activity [30] was “Active”. For the same compound, the inhibition [31] was “Active”, the Activity [32] was “Active” and the Activity [33] was “Active”. The Activity [34] was “Active”.

— ChEMBL document CHEMBL4270538, “Targeting prohibitin with small molecules to promote melanogenesis and apoptosis in melanoma cells” (Eur J Med Chem, 2018)
